# Reference: the NIST ThermoML archive (doi:10.1016/j.jct.2013.06.009)
# ± gives the expanded uncertainty stated by the source.
# Assays:
# [1] = wn = mass fraction of the nth substance listed; settings: 101.33 kPa, Liquid, w1 = 0.009; for viscosity: Capillary tube (Ostwald / Ubbelohde) method; for mass density: Vibrating tube method
# [2] = 101.33 kPa, Liquid; for viscosity: Capillary tube (Ostwald / Ubbelohde) method; for mass density: Vibrating tube method
# [3] = mn = molality of the nth substance listed, in mol/kg; settings: 101.33 kPa, Liquid, m2 = 0; for viscosity: Capillary tube (Ostwald / Ubbelohde) method; for mass density: Vibrating tube method
smiles,measurement,setting,value
[Cl-].[Na+] [sodium chloride] + O,viscosity,[1]; 278.15 K,1.53 ± 0.032 mPa·s
same,mass density,[1]; 278.15 K,1006.09 ± 0.21 kg/m3
same,viscosity,[1]; 283.15 K,1.321 ± 0.028 mPa·s
same,mass density,[1]; 283.15 K,1005.64 ± 0.21 kg/m3
same,viscosity,[1]; 288.15 K,1.154 ± 0.024 mPa·s
same,mass density,[1]; 288.15 K,1005.07 ± 0.21 kg/m3
same,viscosity,[1]; 293.15 K,1.015 ± 0.021 mPa·s
same,mass density,[1]; 293.15 K,1004.14 ± 0.21 kg/m3
same,viscosity,[1]; 298.15 K,0.9068 ± 0.019 mPa·s
same,mass density,[1]; 298.15 K,1002.96 ± 0.21 kg/m3
same,viscosity,[1]; 303.15 K,0.8105 ± 0.017 mPa·s
same,mass density,[1]; 303.15 K,1001.47 ± 0.21 kg/m3
same,viscosity,[1]; 308.15 K,0.7363 ± 0.015 mPa·s
same,mass density,[1]; 308.15 K,999.75 ± 0.21 kg/m3
same,viscosity,[1]; 313.15 K,0.6641 ± 0.014 mPa·s
same,mass density,[1]; 313.15 K,997.82 ± 0.21 kg/m3
O [water],viscosity,[2]; 278.15 K,1.521 ± 0.032 mPa·s
same,mass density,[2]; 278.15 K,999.96 ± 0.2 kg/m3
same,viscosity,[2]; 283.15 K,1.307 ± 0.027 mPa·s
same,mass density,[2]; 283.15 K,999.7 ± 0.2 kg/m3
same,viscosity,[2]; 288.15 K,1.135 ± 0.024 mPa·s
same,viscosity,[2]; 293.15 K,1.002 ± 0.021 mPa·s
same,viscosity,[2]; 298.15 K,0.8903 ± 0.019 mPa·s
same,viscosity,[2]; 303.15 K,0.7977 ± 0.017 mPa·s
same,viscosity,[2]; 308.15 K,0.719 ± 0.015 mPa·s
same,viscosity,[2]; 313.15 K,0.6532 ± 0.014 mPa·s
O [water] + CO/N=C(\C(=O)N[C@@H]1C(=O)N2C(C(=O)O)=C(C[N+]3(C)CCCC3)CS[C@H]12)c1csc(N)n1.Cl.[Cl-],viscosity,[3]; 278.15 K,1.521 ± 0.032 mPa·s
same,mass density,[3]; 278.15 K,999.96 ± 0.21 kg/m3
same,viscosity,[3]; 283.15 K,1.307 ± 0.027 mPa·s
same,mass density,[3]; 283.15 K,999.7 ± 0.21 kg/m3
same,viscosity,[3]; 288.15 K,1.135 ± 0.024 mPa·s
same,viscosity,[3]; 293.15 K,1.002 ± 0.021 mPa·s
same,viscosity,[3]; 298.15 K,0.8903 ± 0.019 mPa·s
same,viscosity,[3]; 303.15 K,0.7977 ± 0.017 mPa·s
same,viscosity,[3]; 308.15 K,0.719 ± 0.015 mPa·s
same,viscosity,[3]; 313.15 K,0.6532 ± 0.014 mPa·s
